Test results from patent US20230248723A1, “PYRROLO[2,3-B]PYRAZINE COMPOUNDS AS CCCDNA INHIBITORS FOR THE TREATMENT OF HEPATITIS B VIRUS (HBV) INFECTION” (Hoffmann-La Roche Inc., priority 2017, published 2023).
pIC50: −log10 of the molar value. Where two headings read alike, the source gives them in different places.

Experiments:
[1] = test system: iPS-derived hepatocyte-like cells (HLC); experiment: HBV infection of MB-1-treated HLC (HBsAg released into culture medium); format: cell-based, human
HBsAg = experiment: HBsAg, multiplex assay, HBV-infected PHH; format: cell-based; conditions: Hepatitis B virus
Method: Fresh primary human hepatocytes (PXB-PHH) harvested from humanized mice (uPA/SCID mice)—herein called PHH—were obtained from PhoenixBio Co., Ltd (Japan). Cells were seeded on a collagen I-coated plate at the following cell density: 35,000 cells/well (384-well), 70,000 cells/well (96-well), or, 400,000 cells/well (24-well) in modified hepatocyte clonal growth medium (dHCGM). dHCGM is a DMEM medium containing 100 U/ml Penicillin, 100 μg/ml Streptomycin, 20 mM Hopes, 44 mM NaHCO3, 15 μg/ml L-proline, 0.25 μg/ml insulin, 50 nM Dexamethazone, 5 ng/ml EGF, 0.1 mM Asc-2P, 2% DMSO and 10% FBS (Ishida et al., 2015). Cells were cultured at 37° C. incubator in a humidified atmosphere with 5% CO2. Culture medium was replaced 24 h post-plating and every 2 days until harvest.
Following 4 day of maturation with 1 μM MB-1, HLC were incubated with HBV (purified from CHB individuals) at multiplicity of infection (MOI) 10-40 without PEG for 24 hr; virus inoculum was removed the following day. […] Compound treatment in HLC and PHH was started at day 3 post infection. Compound (in powder) was dissolved in DMSO; the final concentration of DMSO added to cells is 1%. Fresh compound was replenished every 2 day until cells were harvested at day 10 (PHH), or day 14 (HLC). Compound effect on HBV and cellular toxicity was measured by multiplex assay (HBsAg, HBeAg, albumin), branched DNA (pgRNA), or digital PCR (cccDNA) and depicted as % of inhibition compared to DMSO control. Graphs were prepared using Spotfire software.
A custom, Luminex-based multiplex assay that simultaneously measured HBeAg, albumin, and HBsAg was developed by Radix BioSolutions (Georgetown, Tex.). This is a sandwich immunoassay; each capture antibody was coupled with xMAP™ Luminex magnetic beads. The dynamic ranges of analyte detection are as follows: HBeAg (1-316 ng/ml), albumin (3.1-10,000 ng/ml), and HBsAg (0.1-100 ng/ml) with coefficient variant (CV) […]. Samples were read on FlexMAP 3D (Luminex) and analyzed by Genedata software.

With `O=C(NCc1cccc(F)c1)c1cccc2[nH]c(-c3c(NC[C@@H](O)c4ccccc4)cc[nH]c3=O)nc12` [MB-1] as the molecule, how does the “peak of HBsAg” value ([1]; HLC treated with MB-1 1 μM for 4 days, patient-derived HBV MOI 10, day 11 pi) read?
Its value is about 16 ng/mL.

What about the “HBsAg” value ([1]; HLC with MB-1, HepG2.2.15-derived HBV, MOI 10, day 1 pi) of the same molecule?
The value was 0.05 ± 0.01 ng/mL.

And the “HBsAg” value ([1]; HLC with MB-1, HepG2.2.15-derived HBV, MOI 10, day 3 pi)?
Its value is 0.06 ± 0.01 ng/mL.

What about the “HBsAg” value ([1]; HLC with MB-1, HepG2.2.15-derived HBV, MOI 10, day 8 pi) of the same molecule?
Its value is 0.08 ± 0.01 ng/mL.

And the “HBsAg” value ([1]; HLC with MB-1, HepG2.2.15-derived HBV, MOI 10, day 11 pi)?
Its value is 0.10 ± 0.01 ng/mL.

What about the “HBsAg” value ([1]; HLC with MB-1, HepG2.2.15-derived HBV, MOI 10, day 14 pi) of the same molecule?
The value was 0.09 ± 0.01 ng/mL.

And the “HBsAg” value ([1]; HLC with MB-1, HepG2.2.15-derived HBV, MOI 100, day 1 pi)?
Its value is 414.13 ± 1.68 ng/mL.

And the “HBsAg” value ([1]; HLC with MB-1, HepG2.2.15-derived HBV, MOI 100, day 3 pi)?
The value was 8.12 ± 2.21 ng/mL.

And the “HBsAg” value ([1]; HLC with MB-1, HepG2.2.15-derived HBV, MOI 100, day 8 pi)?
The value was 0.36 ± 0.11 ng/mL.

What about the “HBsAg” value ([1]; HLC with MB-1, HepG2.2.15-derived HBV, MOI 100, day 11 pi) of the same molecule?
The value was 0.73 ± 0.20 ng/mL.

And the “HBsAg” value ([1]; HLC with MB-1, HepG2.2.15-derived HBV, MOI 100, day 14 pi)?
The value was 0.43 ± 0.18 ng/mL.

And the “HBsAg” value ([1]; HLC with MB-1, patient-derived HBV, MOI 10, day 1 pi)?
The value was 0.34 ± 0.06 ng/mL.

And the “HBsAg” value ([1]; HLC with MB-1, patient-derived HBV, MOI 10, day 3 pi)?
The value was 0.93 ± 0.25 ng/mL.

What about the “HBsAg” value ([1]; HLC with MB-1, patient-derived HBV, MOI 10, day 8 pi) of the same molecule?
The value was 5.87 ± 1.34 ng/mL.

And the “HBsAg” value ([1]; HLC with MB-1, patient-derived HBV, MOI 10, day 11 pi)?
Its value is 14.31 ± 2.02 ng/mL.

And the “HBsAg” value ([1]; HLC with MB-1, patient-derived HBV, MOI 10, day 14 pi)?
The value was 10.39 ± 1.46 ng/mL.

With `O=C(NC(CO)CO)c1c[nH]c2ncc(C3CC3)nc12` [compound 7] as the molecule, how does the IC50 (HBsAg; 240 h, read-out: HBsAg IC50 (μM) Median, PHH, patient-derived HBV GT A, MOI 40, day 10 pi) read?
Its IC50 is 0.33 µM.

And the IC50 (HBsAg; 240 h, read-out: HBsAg IC50 (μM) Median, PHH, patient-derived HBV GT B, MOI 40, day 10 pi)?
Its IC50 is 0.34 µM.

What about the IC50 (HBsAg; 240 h, read-out: HBsAg IC50 (μM) Median, PHH, patient-derived HBV GT C, MOI 40, day 10 pi) of the same molecule?
Its IC50 is 0.3 µM.

What about the IC50 (HBsAg; 240 h, read-out: HBsAg IC50 (μM) Median, PHH, patient-derived HBV GT D, MOI 40, day 10 pi (Table 5)) of the same molecule?
Its IC50 is 0.3 µM.

And the IC50 (HBsAg; read-out: HBsAg IC50 (μM) Median, PHH, HepG2.2.15-derived HBV GT D, MOI 40)?
Its IC50 is 9.98 µM.

And the IC50 (HBsAg; read-out: HBsAg IC50 (μM) Median, PHH, HepG2.2.15-derived HBV GT D, MOI 125)?
Its IC50 is 8.98 µM.

And the IC50 (HBsAg; read-out: HBsAg IC50 (μM) Median, PHH, patient-derived HBV (GT D))?
Its IC50 is 0.45 µM.

And the IC50 (HBsAg; read-out: HBsAg IC50 (μM) Median, PHH, patient-derived HBV GT D, MOI 40 (Table 6))?
Its IC50 is 0.44 µM.

And the IC50 (HBsAg; read-out: HBsAg IC50 (μM) Median, PHH, patient-derived HBV GT D, MOI 125)?
The IC50 was 0.8 µM.

And the pIC50 (HBsAg; read-out: HBsAg IC50s, PHH, patient-derived HBV GT A-D, range stated in text for HBsAg & HBeAg)?
Its pIC50 is 6.35 to 6.62.
